The values below come from EP0371366A1, “Antiviral agents” (priority 1988, dated 1990).

In general, EC50 refers to the concentration needed to bring the measured effect to its halfway point. The term IC50 denotes the concentration that gives 50% inhibition.

Like-named read-outs stand apart in the source and are kept apart here. Marks after values point to notes of the source that are not given here.

One series concerns Uninfected A301 cells. In words: Cytotoxicity in uninfected A301 (Alex) cells. It is filed as cell-based. Here is the method:
(§1) A301 (Alex) cells are pre-infected with a constant amount of HIV (LAV Strain) for three hours at 37° C. Test compounds and AZT (control) are added to the infected cells in two, three or five-fold dilutions, out four places for screening and eight places for confirmation. Unless mentioned the highest concentration is […]. The test plates are incubated in C02 at 37` C for up to twelve days (incubation time depends on virus pool titer) with a partial medium/sample change midpoint through the incubation period. Uninfected A301 cells with sample dilutions, but without virus, are used to evaluate cytotoxicity.

The nature of series [1]: Cytotoxicity in uninfected A301 (Alex) cells. The class given is cell-based. The settings on record: human, read-out: Cell Toxicity Partial. The protocol:
as §1

In the next series the test system is HIV (LAV Strain). The experiment in a line: Antiviral activity in HIV-infected A301 (Alex) cells, reverse transcriptase level readout. The class given is cell-based. Conditions: Human immunodeficiency virus 1. The protocol: This procedure is a modification of a procedure initially described by Chen et al., Biochemical Pharmacology. 36 (24), 4361-4362 (1987).
as §1
Reverse transcriptase levels are assayed at the end of the incubation period as follows, to determine if antiviral activity is present.
[…] of medium from the HIV infected Alex cells is added to 10 mL of 3.2% Triton X-100. This solution is incubated for 30 minutes at 37° C, then 25 mL of 4X assay mix is added to it. The 4X assay mix contains [^3H]TTP, poly(A).oligo(dT), potassium chloride, magnesium chloride, dithiothreitol, and Tris-HCI buffer, pH8.0. […] The radioactivity remaining on the 3MM paper is quantitated by scintillation counter, and corresponds to reverse transcriptase level.

Another series deals with HIV. Conditions: background statement on prior art; cited from earlier work.
For series [2] the following is noted: background statement on prior art; cited from earlier work.
Series [3] has as its system Erythroid Colonies, CFU-E. The experiment in a line: CFU-E assay (late erythroid precursors), human hematopoietic cell toxicity. It is filed as cell-based. An excerpt:
(§2) This procedure is a modification of procedures initially described by Diainiak, et al., British Journal of Haematology, 69, 229-304 (1988), or as described by Sommadossi, et al., Agents and Chemotherapy, 31-(3), 452-454 (1987).
(§3) The effect of 4 -azidothymidine and AZT on the formation of erythroid and GM colonies from precursors in human peripheral blood and bone marrow were compared; from which the inhibition of 4 -azidothymidine and AZT against human hematopoietic cells were compared.
In each experiment peripheral blood or bone marrow from a single donor was used. […]
MN were cultured at a concentration of 3 x 10^5 cells/ml. The culture medium consisted of Iscove's Modified Eagle Medium (Gibco) supplemented with 30% heat-inactiviated FCS (Hyclone), penicillin ([…]), streptomycin ([…]), 2-mercaptoethanol (1 x 10^-4, 1% deionized bovine serum albumin (BSA, Sigma), DEAE-Dextran 40 mg/ml (Pharmacia), 0.8% methylcellulose (4000 Centipose, Fisher), and erythropoietin 2 U/ml (Connaught Laboratories). Cells were plated in 96-well plates ([…]) and incubated at 37^*C with 5% C02 in air (100% humidity) for 7-14 days. CFU-E colonies were counted on Days 7-8. Clusters of 8 or more hemoglobinized cells were considered as a colony. BFU-E colonies were counted on Day 14. Aggregates of 50 or more cells were counted as a colony. […]

Series [4] concerns Friend leukemia virus complex (FLVC). The class given is in vivo, Balb/c mice. Conditions: daily dose 120 mg/kg i.p. for 9 days. Here is the method: This procedure is a modification of a procedure initially described by Jones et al., Journal of Virology, 62 (2), 511-51,8 (1988), or by modifications thereof.
Friend leukemia virus complex (FLVC) was used. This retrovirus complex consists of both helper and defective virus particles.
Six week old female Balb/c mice from Bantin and Kingman, each weighing on the average of 18 gm, received 0.2ml of a solution (comprised of virus diluted in PBS containing 0.002 M EDTA) administered at 20 FFU/mouse, intravenously. Treatments began 4 hours after infection and continued for 9 days. AZT and 4'-azidothymidine were administered at 60 mg/kg/dose twice daily on Days 0, 4, and 5; and on Days 1-3 and 6-8 were administered 3 times daily at 40 mg/kg/dose. 2 3 -Dideoxycytidine was administered at 120 mg/kg/dose twice daily on days 0, 4, and 5; and on days 1-3 and 6-8 was administered 3 times daily at 80 mg/kg/dose. All treatments were given intraperitoneally, 0.5mi/dose. On day 9 after infection the spleens were removed, stained and fixed in Bouin's solution for 2 hours and then weighed. Foci were counted on spleens. A standard t-test was run to compare difference in spleen weights and difference in number of foci-forming units (FFU's) per spleen between groups.

Series [5] concerns Granulocyte-Macrophage Colonies (CFU-GM). The experiment in a line: CFU-GM assay (myeloid precursors), human hematopoietic cell toxicity. The class given is cell-based.
Description: as §2, §3
In each experiment peripheral blood or bone marrow from a single donor was used. Human peripheral blood mononuclear cells (PBL) were separated from heparinized blood of drug-free donors by density-gradient centrifugation in Ficoll (Pharmacia). Whole blood diluted 1:1 with Hanks' balanced salt solution (HBSS, Gibco) was layered on the top of Ficoll and centrifuged at 400 x g for 30 min. Cells were collected from the interphase and after washing, the concentration was adjusted to 2x10^6 cells/mL in RPMI-1640 medium with 25 mM Hepes buffer (Gibco). Monocytes were removed by adherence to plastic in large Petri dishes (150x15mm), adding 20 ml of the cell suspension/dish, and incubating for 1 hour at 37° C. Nonadherent mononuclear cells (MN) were removed by vigorous washing of the Petri dish with warm (37°C) HBSS.
Bone marrow aspirates from healthy donors were collected in heparizined syringes. The whole mononuclear cell fraction was separated by Ficoll-Paque density-gradient centrifugation (400 x g for 30 min). Cells collected from the interphase were washed 3 times in HBSS and resuspended in culture medium as described below for CFU-GM assay.
MN (1.5x10^6 cells/ml) and BM (1.x10^5 cells/ml) were cultured in complete medium as follows: Dulbecco's Modified Eagle Medium (DMEM, Gibco) supplemented with 20% heat-inactivated fetal calf serum (FCS, Hyclone), 2 mM L-glutamine, 5 x 10-^5 M 2-mercaptoethanol, penicillin (100 U/ml), streptomycin ([…]), and 0.3% bacto-agar (Difco). All supplements were from Gibco, unless otherwise specified. Cells were plated in 35x100 mm Lux Petri dishes (suspension dishes) in triplicate, and incubated at 37°C with 5% CO2 in air at 100% humidity. A supernatant from a T-cell line (GCT, Gibco), containing GM-Colony Stimlating Factor (GM-CSF), was used at a final concentration of 10% in complete medium. Tested compounds were added to the test dishes at concentrations of 10-^9 to 10-^4 M. Cells were incubated in air containing 5% CO2 (100% humidity) at 37°C for 14 days. Colonies were counted under a dissecting microscope. A CFU-GM colony was defined as a cluster of 50 or more cells consisting of granulocytes, monocyte-macrophages, or both.
All tests were performed in triplicate. The 50% inhibitory concentrations (ICso) for all types of colonies were determined using an RS 1 program on an IBM-PC.

Regarding `Cc1cn([C@H]2C[C@H](N=[N+]=[N-])[C@@H](CO)O2)c(=O)[nH]c1=O` [3'-azidothymidine, reference compound], in the series with Uninfected A301 cells, the “Cell Toxicity Complete” value stood at 3300 µM. Further, the MCC in series [1] worked out at 825 µM. For the same molecule, in the series on HIV (LAV Strain), the response was half-maximal at 0.01 µM (EC50).
For the molecule `[N-]=[N+]=N[C@]1(CO)O[C@@H](n2ccc(N)nc2=O)[C@H](O)[C@@H]1O` [4 -azidocytidine], in the series with HIV, the anti-HIV activity result is listed as “devoid of anti-HIV activity”. In addition, the cytotoxicity entry in series [2] is reported as “cytotoxic”.
Regarding `Cc1cn([C@H]2C[C@H](O)[C@](CO)(N=[N+]=[N-])O2)c(=O)[nH]c1=O` [4'-azidothymidine], the “Cell Toxicity Complete” value with Uninfected A301 cells was 200 µM. Moreover, the MCC in series [1] worked out at 8 µM. In addition, the IC50 in series [3] (BM (1 experiment)) was found to be 27 µM; in series [5] (bone marrow, experiment 1, listed as 2, read-out: IC50 BM 1) it was 2.01 µM; in series [5] (bone marrow, experiment 2, listed as 2, read-out: IC50 BM 2), 0.9 µM; in series [5] (peripheral blood mononuclear cells, five separate experiments, listed as 2, read-out: IC50 PBM Mean ±SE) it was 4.83 ± 1.42 µM. For the same molecule, the “Inhibition of Splenomegaly” value in series [4] was found to be 75%. Also, the FFU/Spleen in series [4] (Day 9) is ≥26 FFU/Spleen. Further, the “Spleen Weight” value in series [4] (weighed on Day 9 after infection) is 0.190^d gm. The EC50 in the series on HIV (LAV Strain) (A301 (Alex) cells pre-infected with HIV (LAV Strain), reverse transcriptase levels at end of incubation, read-out: EC50) is 0.01 µM.
Regarding `Cc1cn([C@H]2C[C@H](O)[C@](CO)(N=[N+]=[N-])O2)c(=O)[nH]c1=O` [Compound 1], the IC50 in series [3] (PBM (3 experiments)) was > 100 µM; in series [5] (bone marrow, experiment 1, read-out: IC50 BM 1) it was 21.1 µM; in series [5] (bone marrow, experiment 2, read-out: IC50 BM 2), 13.6 µM; in series [5] (peripheral blood mononuclear cells, five separate experiments, read-out: IC50 PBM Mean ±SE) it was 20.7 ± 1.73 µM.
